Test results taken from article PMC10272112 (Nature Communications, 2023).

Tests used:
Format in all cases: binding
NCOR2 (Homo sapiens) = test: Chemoproteomic competition pulldown assay (co-competed NCoR partner); conditions: iQ, SW620 lysate
Method: (§1) To identify proteins directly bound by lipoic acid, we employed a chemoproteomic competition assay. Briefly, (R/S)-LA was immobilized on sepharose beads via an amidation reaction to form an affinity matrix (abbreviated as iL; Fig. 1a). This affinity matrix can be incubated with cell lysate to pull down potential LA or LM target proteins and identify these targets via bottom-up proteomics. In a competition assay, free LA or LM were incubated with lysate at different concentrations before pulling down and quantifying target proteins. […] (Fig. 1b, see “Methods” for details). […] The lysate buffer used in this assay contains 1 mM DTT to mimic the intracellular reductive milieu and to reduce lipoic acid and LM. […] Additional competition assays performed in lung adenocarcinoma cell A549 lysate also identified HDAC1, HDAC2, and HDAC6 as targets (Supplementary Fig. 1b). Amongst the three cell lines tested, HDACs were the only confidently identified targets across the 1500–3000 proteins quantified in these assays. […] We validated the results by analogous pulldown competition assays using two other affinity matrices prepared via the immobilization of either the HDAC inhibitor Quisinostat (iQ) and an analog of the class IIa HDAC inhibitor Bürli’s 31[14] (iC)[12]. We have previously shown that these affinity matrices specifically bind to the active sites of HDACs and have used them for HDACi selectivity profiling. Indeed, binding of (R/S)-LA and (R/S)-LM to HDAC1, HDAC2, HDAC3, HDAC6, and, to a lesser extent, HDAC8 was confirmed in these assays (Supplementary Fig. 1c, d). No binding to class IIa HDACs or the recently discovered common HDAC inhibitor off-target MBLAC2 was observed (Supplementary Fig. 1e)[12]. […] This observation might reflect electrostatic repulsion between the HDAC10 active site gate-keeper glutamic acid residues[15],[16] and the terminal carboxylic acid of LA.
(§2) To assess the degree of protein depletion from lysates by the affinity matrix, a second pulldown (PDPD) with fresh beads was performed using the unbound protein fraction from the vehicle control flow through. The beads were washed (1 × 1 mL of lysis buffer without inhibitors and only 0.4% Igepal, 2 × 2 mL of lysis buffer without inhibitors and only 0.2% Igepal), and captured proteins were denatured with 8 M urea buffer, alkylated with 55 mM chloroacetamide and digested with Trypsin according to standard procedures. The resulting peptides were desalted on a C18 filter plate (Sep-Pak® tC18 µElution Plate, Waters), vacuum dried, and stored at −20 °C until LC–MSMS measurement.
(§3) For the competition assays, relative binding was calculated based on the protein intensity ratio to the DMSO control for every single inhibitor concentration. EC50 values were derived from a four-parameter log-logistic regression with variable slope (constrain: bottom > 0). The obtained EC50 values were multiplied with a protein-dependent correction factor (cf), resulting in the apparent Kd value (Kd^app). The correction factor is determined by calculating the ratio of the protein intensity of two consecutive pulldowns of the vehicle control sample[13]. Targets of the inhibitors were annotated manually according to published procedures[12],[46],[47]. […] Additionally, the number of unique peptides and MSMS counts per condition were taken into account. Positive target binding across several independent experiments performed with different cell lysates further substantiated our confidence for a true positive drug-target binding event.

HDAC4 = biological target: T1, HDAC4 (Homo sapiens, UniProt P56524); test: Chemoproteomic competition pulldown assay with iC; conditions: for relative binding vs DMSO: iC
T1 construct: endogenous in cells; host or cells: cell lysate
Method: as §1, §2, §3

HDAC7 = biological target: T2, HDAC7 (Homo sapiens, UniProt Q8WUI4); test: Chemoproteomic competition pulldown assay with iC
T2 construct: endogenous in cells; host or cells: cell lysate
T2 sequence (Q8WUI4 1-952): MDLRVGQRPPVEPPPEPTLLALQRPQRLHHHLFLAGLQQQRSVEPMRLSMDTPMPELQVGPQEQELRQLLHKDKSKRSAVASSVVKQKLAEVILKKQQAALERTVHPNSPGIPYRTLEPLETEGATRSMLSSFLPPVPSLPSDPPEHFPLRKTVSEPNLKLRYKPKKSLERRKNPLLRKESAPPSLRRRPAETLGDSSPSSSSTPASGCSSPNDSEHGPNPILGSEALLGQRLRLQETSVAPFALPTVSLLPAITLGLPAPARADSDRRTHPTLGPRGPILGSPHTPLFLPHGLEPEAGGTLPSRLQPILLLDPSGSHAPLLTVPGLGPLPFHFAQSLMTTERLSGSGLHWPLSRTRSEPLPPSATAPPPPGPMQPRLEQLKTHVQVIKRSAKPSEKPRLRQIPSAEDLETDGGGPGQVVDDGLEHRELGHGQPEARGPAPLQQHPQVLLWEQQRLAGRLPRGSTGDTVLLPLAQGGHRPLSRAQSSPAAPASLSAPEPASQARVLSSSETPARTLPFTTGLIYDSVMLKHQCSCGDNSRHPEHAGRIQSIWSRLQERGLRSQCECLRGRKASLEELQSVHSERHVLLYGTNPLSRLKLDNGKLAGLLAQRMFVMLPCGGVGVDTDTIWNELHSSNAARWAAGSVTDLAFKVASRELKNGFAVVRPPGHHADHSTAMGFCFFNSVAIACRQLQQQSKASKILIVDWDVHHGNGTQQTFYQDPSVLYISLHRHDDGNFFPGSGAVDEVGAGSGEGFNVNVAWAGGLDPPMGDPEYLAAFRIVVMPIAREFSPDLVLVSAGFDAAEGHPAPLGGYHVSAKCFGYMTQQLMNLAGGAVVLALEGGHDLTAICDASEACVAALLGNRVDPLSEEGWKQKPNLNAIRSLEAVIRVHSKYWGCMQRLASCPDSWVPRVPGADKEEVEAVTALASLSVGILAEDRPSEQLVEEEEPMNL
Method: as §1, §2, §3

NCOR1 (Homo sapiens) = test: Chemoproteomic competition pulldown assay (co-competed NCoR partner); conditions: iQ, SW620 lysate
Method: as §1, §2, §3

T1 sequence (P56524 whole entry): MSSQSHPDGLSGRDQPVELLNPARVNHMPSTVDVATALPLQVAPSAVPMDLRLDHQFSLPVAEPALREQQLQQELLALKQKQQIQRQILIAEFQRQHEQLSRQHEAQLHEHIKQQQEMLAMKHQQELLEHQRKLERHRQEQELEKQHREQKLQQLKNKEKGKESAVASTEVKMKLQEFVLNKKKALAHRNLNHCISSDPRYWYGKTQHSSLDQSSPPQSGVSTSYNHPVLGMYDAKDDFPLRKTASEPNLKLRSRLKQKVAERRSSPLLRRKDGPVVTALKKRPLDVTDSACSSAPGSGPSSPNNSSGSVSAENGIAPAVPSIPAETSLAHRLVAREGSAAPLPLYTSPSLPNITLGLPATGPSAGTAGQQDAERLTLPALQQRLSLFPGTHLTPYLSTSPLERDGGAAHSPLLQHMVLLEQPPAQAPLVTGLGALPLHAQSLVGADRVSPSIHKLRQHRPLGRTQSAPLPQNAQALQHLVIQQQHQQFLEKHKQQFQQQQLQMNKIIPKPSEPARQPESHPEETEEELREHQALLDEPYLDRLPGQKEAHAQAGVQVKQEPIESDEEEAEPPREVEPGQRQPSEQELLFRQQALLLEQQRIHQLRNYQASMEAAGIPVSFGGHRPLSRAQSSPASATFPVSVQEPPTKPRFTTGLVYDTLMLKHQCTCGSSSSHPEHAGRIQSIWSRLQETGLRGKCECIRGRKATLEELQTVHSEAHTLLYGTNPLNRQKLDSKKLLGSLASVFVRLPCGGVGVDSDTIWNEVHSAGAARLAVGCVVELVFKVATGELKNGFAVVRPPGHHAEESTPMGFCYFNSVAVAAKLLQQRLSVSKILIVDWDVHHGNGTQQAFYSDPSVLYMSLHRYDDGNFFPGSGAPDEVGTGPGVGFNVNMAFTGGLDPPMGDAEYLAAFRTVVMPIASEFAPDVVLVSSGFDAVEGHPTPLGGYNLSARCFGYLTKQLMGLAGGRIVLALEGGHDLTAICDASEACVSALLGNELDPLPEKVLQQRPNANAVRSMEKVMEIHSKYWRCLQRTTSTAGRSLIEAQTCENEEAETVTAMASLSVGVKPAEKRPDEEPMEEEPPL
Sequence of NCOR2 (Homo sapiens) (O15379 whole entry): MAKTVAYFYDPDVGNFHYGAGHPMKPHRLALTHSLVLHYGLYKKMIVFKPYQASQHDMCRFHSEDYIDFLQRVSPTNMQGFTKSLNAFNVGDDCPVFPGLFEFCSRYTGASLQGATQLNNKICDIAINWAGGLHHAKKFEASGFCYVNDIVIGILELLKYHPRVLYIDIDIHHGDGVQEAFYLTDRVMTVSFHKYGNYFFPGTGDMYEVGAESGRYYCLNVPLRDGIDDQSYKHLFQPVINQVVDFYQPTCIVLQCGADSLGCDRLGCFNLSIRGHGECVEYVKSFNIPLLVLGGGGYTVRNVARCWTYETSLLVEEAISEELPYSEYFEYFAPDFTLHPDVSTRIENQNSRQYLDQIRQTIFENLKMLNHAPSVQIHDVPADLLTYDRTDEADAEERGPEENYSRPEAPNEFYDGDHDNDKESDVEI
Sequence of NCOR2 (Homo sapiens) (Q9Y618 whole entry, further chain): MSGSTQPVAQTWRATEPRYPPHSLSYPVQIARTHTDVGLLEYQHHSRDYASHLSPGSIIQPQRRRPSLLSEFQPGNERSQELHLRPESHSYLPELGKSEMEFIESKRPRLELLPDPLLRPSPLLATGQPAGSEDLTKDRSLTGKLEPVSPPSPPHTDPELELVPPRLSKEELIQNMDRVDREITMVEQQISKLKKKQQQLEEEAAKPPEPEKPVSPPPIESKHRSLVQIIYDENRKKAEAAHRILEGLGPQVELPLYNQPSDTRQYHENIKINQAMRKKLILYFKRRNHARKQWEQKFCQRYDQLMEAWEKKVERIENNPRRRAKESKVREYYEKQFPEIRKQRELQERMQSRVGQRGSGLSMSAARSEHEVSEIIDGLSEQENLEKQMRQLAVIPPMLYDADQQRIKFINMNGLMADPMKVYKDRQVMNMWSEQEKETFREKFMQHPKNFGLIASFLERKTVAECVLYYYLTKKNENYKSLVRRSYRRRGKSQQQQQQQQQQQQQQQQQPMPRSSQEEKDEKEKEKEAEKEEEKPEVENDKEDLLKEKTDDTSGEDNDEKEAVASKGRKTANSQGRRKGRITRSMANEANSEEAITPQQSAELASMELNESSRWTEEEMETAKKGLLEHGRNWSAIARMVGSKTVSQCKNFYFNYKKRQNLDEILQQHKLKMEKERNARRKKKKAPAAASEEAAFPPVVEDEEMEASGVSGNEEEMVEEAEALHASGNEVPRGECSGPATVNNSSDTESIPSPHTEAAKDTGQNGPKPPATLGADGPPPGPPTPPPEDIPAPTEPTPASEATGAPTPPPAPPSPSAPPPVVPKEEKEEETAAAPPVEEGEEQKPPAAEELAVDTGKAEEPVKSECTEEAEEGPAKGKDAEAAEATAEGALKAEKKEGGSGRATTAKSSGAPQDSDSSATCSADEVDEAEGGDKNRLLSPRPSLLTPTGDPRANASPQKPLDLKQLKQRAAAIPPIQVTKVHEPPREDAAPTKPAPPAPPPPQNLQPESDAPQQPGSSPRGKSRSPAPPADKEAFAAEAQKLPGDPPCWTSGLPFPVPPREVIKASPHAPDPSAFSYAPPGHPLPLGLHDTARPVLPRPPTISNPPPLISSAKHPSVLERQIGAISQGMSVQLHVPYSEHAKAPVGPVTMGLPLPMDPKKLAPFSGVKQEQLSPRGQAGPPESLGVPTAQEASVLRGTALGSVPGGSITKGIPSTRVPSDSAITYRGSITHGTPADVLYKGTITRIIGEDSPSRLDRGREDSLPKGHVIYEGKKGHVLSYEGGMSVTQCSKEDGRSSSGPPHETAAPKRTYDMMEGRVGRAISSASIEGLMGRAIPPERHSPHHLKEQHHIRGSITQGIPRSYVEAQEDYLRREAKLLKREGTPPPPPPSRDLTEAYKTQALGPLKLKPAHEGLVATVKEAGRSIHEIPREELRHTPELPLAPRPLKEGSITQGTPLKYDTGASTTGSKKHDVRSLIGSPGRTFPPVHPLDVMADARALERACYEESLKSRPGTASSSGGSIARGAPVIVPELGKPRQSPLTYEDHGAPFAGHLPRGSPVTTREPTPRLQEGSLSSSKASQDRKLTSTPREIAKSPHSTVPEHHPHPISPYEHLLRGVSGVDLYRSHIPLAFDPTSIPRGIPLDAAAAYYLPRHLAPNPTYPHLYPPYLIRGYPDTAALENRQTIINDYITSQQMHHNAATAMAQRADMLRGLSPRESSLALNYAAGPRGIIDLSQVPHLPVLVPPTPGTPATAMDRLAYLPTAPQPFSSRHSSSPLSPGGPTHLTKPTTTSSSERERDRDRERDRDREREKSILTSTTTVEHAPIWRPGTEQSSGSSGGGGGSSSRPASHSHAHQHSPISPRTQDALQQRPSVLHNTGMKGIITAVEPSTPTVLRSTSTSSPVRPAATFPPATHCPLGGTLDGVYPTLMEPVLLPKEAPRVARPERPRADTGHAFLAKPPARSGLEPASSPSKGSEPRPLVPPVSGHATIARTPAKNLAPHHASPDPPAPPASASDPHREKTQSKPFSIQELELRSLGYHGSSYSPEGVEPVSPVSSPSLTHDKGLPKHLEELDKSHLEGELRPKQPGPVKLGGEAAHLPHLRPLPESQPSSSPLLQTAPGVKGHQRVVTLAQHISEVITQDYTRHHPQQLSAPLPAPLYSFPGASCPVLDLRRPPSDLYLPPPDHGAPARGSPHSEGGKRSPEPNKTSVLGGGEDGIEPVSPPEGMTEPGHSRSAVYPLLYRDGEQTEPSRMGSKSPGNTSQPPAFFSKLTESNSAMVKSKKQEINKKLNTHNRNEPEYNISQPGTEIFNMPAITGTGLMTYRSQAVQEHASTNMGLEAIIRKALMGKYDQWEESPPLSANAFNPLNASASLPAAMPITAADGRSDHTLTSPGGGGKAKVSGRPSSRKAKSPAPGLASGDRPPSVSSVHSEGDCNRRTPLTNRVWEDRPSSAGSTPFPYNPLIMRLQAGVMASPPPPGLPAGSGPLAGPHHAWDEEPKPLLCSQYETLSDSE

Q: Which “relative binding vs DMSO” value (NCOR2 (Homo sapiens); log10 M -3.52288) does the source give for `O=C(O)CCCCC1CCSS1` (racemic) [(R/S)-LA, (R/S)-lipoic acid] here?
A: 0

Q: And the “relative binding vs DMSO” value (NCOR2 (Homo sapiens); log10 M -4)?
A: 0

Q: What about the “relative binding vs DMSO” value (NCOR2 (Homo sapiens); log10 M -4.52288) of the same molecule?
A: 0.568

Q: And the “relative binding vs DMSO” value (NCOR2 (Homo sapiens); log10 M -5)?
A: 0.5133

Q: What about the “relative binding vs DMSO” value (NCOR2 (Homo sapiens); log10 M -5.52288) of the same molecule?
A: 0.9883

Q: And the “relative binding vs DMSO” value (NCOR2 (Homo sapiens); log10 M -6)?
A: 0.9231

Q: What about the “relative binding vs DMSO” value (NCOR2 (Homo sapiens); log10 M -6.52288) of the same molecule?
A: 1.028

Q: What about the “relative binding vs DMSO” value (NCOR2 (Homo sapiens); log10 M -7) of the same molecule?
A: 1.032

Q: And the “binding to class IIa HDACs” value (HDAC4; affinity matrix iC)?
A: No binding

Q: What about the “relative binding vs DMSO” value (HDAC4; log10 M -3.52288) of the same molecule?
A: 1.609

Q: What about the “relative binding vs DMSO” value (HDAC4; log10 M -4) of the same molecule?
A: 1.464

Q: What about the “relative binding vs DMSO” value (HDAC4; log10 M -4.52288) of the same molecule?
A: 1.531

Q: And the “relative binding vs DMSO” value (HDAC4; log10 M -5)?
A: 1.518

Q: And the “relative binding vs DMSO” value (HDAC4; log10 M -5.52288)?
A: 1.32

Q: And the “relative binding vs DMSO” value (HDAC4; log10 M -6)?
A: 1.575

Q: And the “relative binding vs DMSO” value (HDAC4; log10 M -6.52288)?
A: 1.649

Q: What about the “relative binding vs DMSO” value (HDAC4; log10 M -7) of the same molecule?
A: 1.276

Q: And the “relative binding vs DMSO” value (HDAC7; log10 M -3.52288)?
A: 1.458

Q: And the “relative binding vs DMSO” value (HDAC7; log10 M -4)?
A: 1.397

Q: And the “relative binding vs DMSO” value (HDAC7; log10 M -4.52288)?
A: 1.757

Q: What about the “relative binding vs DMSO” value (HDAC7; log10 M -5) of the same molecule?
A: 1.642

Q: And the “relative binding vs DMSO” value (HDAC7; log10 M -5.52288)?
A: 1.564

Q: What about the “relative binding vs DMSO” value (HDAC7; log10 M -6) of the same molecule?
A: 1.746

Q: And the “relative binding vs DMSO” value (HDAC7; log10 M -6.52288)?
A: 1.164

Q: What about the “relative binding vs DMSO” value (HDAC7; log10 M -7) of the same molecule?
A: 1.455

Q: How did the “relative binding vs DMSO” value (NCOR1 (Homo sapiens); log10 M -3.52288) turn out when `NC(=O)CCCCC1CCSS1` (racemic) [(R/S)-LM, (R/S)-lipoamide] was run?
A: 0.2142

Q: And the “relative binding vs DMSO” value (NCOR1 (Homo sapiens); log10 M -4)?
A: 0.3668

Q: And the “relative binding vs DMSO” value (NCOR1 (Homo sapiens); log10 M -4.52288)?
A: 0.5065

Q: What about the “relative binding vs DMSO” value (NCOR1 (Homo sapiens); log10 M -5) of the same molecule?
A: 0.4972

Q: And the “relative binding vs DMSO” value (NCOR1 (Homo sapiens); log10 M -5.52288)?
A: 0.5554

Q: What about the “relative binding vs DMSO” value (NCOR1 (Homo sapiens); log10 M -6) of the same molecule?
A: 0.6839

Q: What about the “relative binding vs DMSO” value (NCOR1 (Homo sapiens); log10 M -6.52288) of the same molecule?
A: 0.8502

Q: And the “relative binding vs DMSO” value (NCOR1 (Homo sapiens); log10 M -7)?
A: 0.9007
